The results in this text go back to ChEMBL document CHEMBL2203204, “Identification of selective inhibitors of indoleamine 2,3-dioxygenase 2” (Bioorg Med Chem Lett, 2012).

For data set [1], the target named is T1, Indoleamine 2,3-dioxygenase 2 (Mus musculus) (UniProt Q8R0V5).
T1 sequence (whole entry): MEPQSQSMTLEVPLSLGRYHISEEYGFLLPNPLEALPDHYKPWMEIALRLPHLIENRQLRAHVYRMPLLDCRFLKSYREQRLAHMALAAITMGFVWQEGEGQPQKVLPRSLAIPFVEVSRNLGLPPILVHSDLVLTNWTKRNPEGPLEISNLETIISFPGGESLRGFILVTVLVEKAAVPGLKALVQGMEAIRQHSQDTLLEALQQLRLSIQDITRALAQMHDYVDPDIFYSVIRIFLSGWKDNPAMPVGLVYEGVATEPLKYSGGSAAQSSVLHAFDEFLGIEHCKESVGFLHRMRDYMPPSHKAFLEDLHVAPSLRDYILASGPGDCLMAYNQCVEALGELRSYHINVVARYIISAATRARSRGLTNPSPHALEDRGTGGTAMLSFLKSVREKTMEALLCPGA
As to conditions: HEK-293T, at 20 µM.
Description: (§1) Inhibition of mouse Ido2 transfected in HEK293T cells using L-tryptophan as substrate assessed as kynurenine formation at 20 uM after 45 mins by spectrophotometric analysis relative to control

The target of data set [2] is Tryptophan 2,3-dioxygenase (Mus musculus) (UniProt P48776). The data set is described as follows: Inhibition of mouse Tdo2 transfected in HEK293T cells using L-tryptophan as substrate assessed as kynurenine formation at 100 uM after 45 mins by spectrophotometric analysis relative to control. It counts as cell-based. As to conditions: HEK-293T.
Chain of Tryptophan 2,3-dioxygenase (Mus musculus) (P48776 whole entry): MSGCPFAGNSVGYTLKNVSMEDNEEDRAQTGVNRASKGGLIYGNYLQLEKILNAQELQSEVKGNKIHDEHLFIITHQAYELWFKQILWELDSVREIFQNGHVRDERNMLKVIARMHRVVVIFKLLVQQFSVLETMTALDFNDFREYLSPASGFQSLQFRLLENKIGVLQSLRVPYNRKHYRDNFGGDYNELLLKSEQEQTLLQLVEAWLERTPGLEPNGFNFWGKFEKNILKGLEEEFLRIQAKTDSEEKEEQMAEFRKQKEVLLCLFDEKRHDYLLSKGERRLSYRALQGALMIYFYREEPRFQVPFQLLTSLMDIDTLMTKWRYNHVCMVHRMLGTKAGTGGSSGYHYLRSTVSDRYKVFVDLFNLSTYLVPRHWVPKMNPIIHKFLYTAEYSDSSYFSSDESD
For data set [3], the target named is T2, Indoleamine 2,3-dioxygenase 2 (Mus musculus, UniProt Q8R0V5).
T2 sequence (Q8R0V5 whole entry): T1 sequence (whole entry)
Nature of the data set: Inhibition of mouse Ido2 transfected in HEK293T cells using L-tryptophan as substrate assessed as kynurenine formation after 45 mins by spectrophotometric analysis. It counts as cell-based, HEK-293T.

The target in data set [4] is Indoleamine 2,3-dioxygenase 1 (Mus musculus, UniProt P28776). Nature of the data set: Inhibition of mouse Ido1 transfected in HEK293T cells using L-tryptophan as substrate assessed as kynurenine formation after 45 mins by spectrophotometric analysis. It counts as cell-based, HEK-293T.
Chain of Indoleamine 2,3-dioxygenase 1 (P28776 whole entry): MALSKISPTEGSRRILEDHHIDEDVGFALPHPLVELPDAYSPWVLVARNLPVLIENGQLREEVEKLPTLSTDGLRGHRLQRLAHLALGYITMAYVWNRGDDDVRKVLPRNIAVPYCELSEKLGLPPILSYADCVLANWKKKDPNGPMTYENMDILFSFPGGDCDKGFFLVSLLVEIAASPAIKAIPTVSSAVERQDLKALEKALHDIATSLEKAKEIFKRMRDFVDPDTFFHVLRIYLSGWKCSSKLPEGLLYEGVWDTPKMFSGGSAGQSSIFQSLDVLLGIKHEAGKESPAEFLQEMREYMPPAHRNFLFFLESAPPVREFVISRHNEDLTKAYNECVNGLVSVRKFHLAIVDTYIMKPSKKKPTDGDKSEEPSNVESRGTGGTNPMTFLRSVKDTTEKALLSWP
The subject of a further data set is HEK-293T. Nature of the data set: Cytotoxicity against HEK293T cells assessed as decrease in cell viability at 25 uM after 24 hrs by trypan blue exclusion assay. It counts as cell-based. As to conditions: human.
A further data set is filed under the species Mus musculus. The data set is described as follows: Selectivity ratio of IC50 for mouse Ido1 to IC50 for mouse Ido2.
Data set [5] concerns the target Indoleamine 2,3-dioxygenase 1 (Mus musculus) (UniProt P28776). Nature of the data set: Inhibition of mouse Ido1 transfected in HEK293T cells using L-tryptophan as substrate assessed as residual activity at 100 uM after 45 mins by spectrophotometric analysis relative to control. It counts as cell-based. The note with it: HEK-293T.
The target in data set [6] is T1, Indoleamine 2,3-dioxygenase 2 (Mus musculus). Nature of the data set: Inhibition of mouse Ido2 transfected in HEK293T cells using L-tryptophan as substrate assessed as assessed as residual activity at 100 uM after 45 mins by spectrophotometric analysis relative to control. It counts as cell-based. The note with it: HEK-293T.
Data set [7] concerns the target Indoleamine 2,3-dioxygenase 2 (Mus musculus) (UniProt Q8R0V5). The note with it: HEK-293T, at 20 µM. This is another data set of the same source.
Description: as §1

One may read the inhibition as the share of the control response that was lost under treatment. A word on the IC50: it is the concentration that inhibits the measured activity by half.

The source made the active and inactive calls. The rule behind the calls is not given here.

Chain of Indoleamine 2,3-dioxygenase 1 (Mus musculus) (P28776 whole entry, looked up): as the sequence (P28776 whole entry) above

Regarding `CC#CCC(C)[C@H](O)/C=C/[C@@H]1[C@H]2C/C(=C/CCCC(=O)O)C[C@H]2C[C@H]1O` (some centres not stated), the inhibition in data set [1] is above 55%. As to `CC(C)C[C@H]1C(=O)N2CCC[C@H]2[C@]2(O)O[C@](NC(=O)[C@@H]3C=C4c5cccc6[nH]c(Br)c(c56)C[C@H]4N(C)C3)(C(C)C)C(=O)N12`, the inhibition in data set [1] was above 55%. The same measure, in the same setting: the result for `CC(C)OC(=O)C(C)(C)Oc1ccc(C(=O)c2ccc(Cl)cc2)cc1` reads above 55%. In turn, `CC(c1cc2ccccc2s1)N(O)C(N)=O` (configuration not stated) registered an inhibition in data set [1] above 55%.

In the case of `CC1=C(C)C(=O)C(CCCCC#CCCCC#CCO)=C(C)C1=O`, the inhibition in data set [1] was above 55%. As to `CCCCCN(CCCCC)C(=O)C(CCC(=O)O)NC(=O)c1ccc(Cl)c(Cl)c1` (configuration not stated), the inhibition in data set [1] was above 55%. Consider `CCCSc1ccc2[nH]c(NC(=O)OC)nc2c1`, for which the inhibition in data set [1] is above 55%. Turning to `CCC[S+]([O-])c1ccc2[nH]c(NC(=O)OC)nc2c1` (configuration not stated), the inhibition in [1] was above 55%. As to `CCCc1nc2c(C)cc(-c3nc4ccccc4n3C)cc2n1Cc1ccc(-c2ccccc2C(=O)O)cc1`, the inhibition in [1] is above 55%. As for `CCN(CC)C(=S)SSC(=S)N(CC)CC`, in data set [1], the inhibition is above 55%. Turning to `CCN(CC)CCCC(C)Nc1c2ccc(Cl)cc2nc2ccc(OC)cc12` (configuration not stated), in data set [1], the inhibition was above 55%. The same measure, in the same setting: under `CCOC(=O)C1=C(C)NC(C)=C(C(=O)OC)C1c1cccc(Cl)c1Cl` (configuration not stated) stands above 55%.

For `CCOC(=O)C1=C(C)NC(C)=C(C(=O)OC)C1c1cccc([N+](=O)[O-])c1` (configuration not stated), in data set [1], the inhibition is above 55%. As to `CCOC(=O)C1=C(C)NC(C)=C(C(=O)OCC)C1c1ccccc1/C=C/C(=O)OC(C)(C)C`, the inhibition in data set [1] is above 55%. For the molecule `CC[C@@H](C(N)=O)N1CCCC1=O`, in data set [1], the inhibition is above 55%.

In data set [1], `CN1C[C@H](C(=O)N[C@]2(C)O[C@@]3(O)[C@@H]4CCCN4C(=O)[C@H](Cc4ccccc4)N3C2=O)C=C2c3cccc4[nH]cc(c34)C[C@H]21` registered an inhibition above 55%. `COC(=O)C1=C(C)NC(C)=C(C(=O)OCC(C)C)C1c1ccccc1[N+](=O)[O-]` (configuration not stated) returned an inhibition in data set [1] above 55%.

In data set [1], `COC(=O)C1=C(C)NC(C)=C(C(=O)OCCN(C)Cc2ccccc2)C1c1cccc([N+](=O)[O-])c1` (configuration not stated) had an inhibition above 55%. As to `COC(=O)Nc1nc2cc(C(=O)c3ccccc3)ccc2[nH]1`, in data set [1], the inhibition was above 55%. In data set [1], `COC(=O)Nc1nc2cc([S+]([O-])c3ccccc3)ccc2[nH]1` (configuration not stated) displayed an inhibition above 55%.

`COCCOC(=O)C1=C(C)NC(C)=C(C(=O)OC(C)C)C1c1cccc([N+](=O)[O-])c1` (configuration not stated) showed an inhibition in [1] above 55%. The molecule `COCCOC(=O)C1=C(C)NC(C)=C(C(=O)OC/C=C/c2ccccc2)C1c1cccc([N+](=O)[O-])c1` (configuration not stated) displayed an inhibition in data set [1] above 55%. For the molecule `COc1cc2c(cc1OC)-c1c/c(=N\c3c(C)cc(C)cc3C)n(C)c(=O)n1CC2`, the inhibition in data set [1] is above 55%. In turn, `COc1cc2nc(N(C)CCCNC(=O)C3CCCO3)nc(N)c2cc1OC` (configuration not stated) displayed an inhibition in data set [1] above 55%. As to `COc1ccccc1OCCNCC(O)COc1cccc2[nH]c3ccccc3c12` (configuration not stated), the inhibition in data set [1] was above 55%.

As for `COc1ccnc(C[S+]([O-])c2nc3cc(OC(F)F)ccc3[nH]2)c1OC` (configuration not stated), the inhibition entry in [2] was “inactive”. The molecule `C[C@@H]1CC[C@H]2[C@@H](C)C(=O)O[C@@H]3O[C@@]4(C)CC[C@@H]1[C@]32OO4` registered an inhibition in [1] above 55%.

`C[C@H](CS)C(=O)N1CCC[C@H]1C(=O)O` displayed an inhibition in data set [1] above 55%. On the same count and under the same terms, under `Clc1ccc(C(Cn2ccnc2)OCc2ccsc2Cl)c(Cl)c1` (configuration not stated) stands above 55%. Still for that read-out and setting: the result for `Clc1ccc(C(Cn2ccnc2)OCc2csc3c(Cl)cccc23)c(Cl)c1` (configuration not stated) reads above 55%.

As for `Clc1ccc(CO/N=C(\Cn2ccnc2)c2ccc(Cl)cc2Cl)c(Cl)c1`, in [1], the inhibition was above 55%.

Turning to `NC[C@H]1CC[C@H](C(=O)O)CC1`, the inhibition in data set [1] is above 55%. `O=C(O)Cc1sc(-c2ccccc2)nc1-c1ccc(Cl)cc1`: in data set [1], the inhibition was above 55%. `O=C1Nc2ccc(Cl)cc2[C@@](C#CC2CC2)(C(F)(F)F)O1` registered an inhibition in [1] above 55%. `OCCN(CCO)c1nc(N2CCCCC2)c2nc(N(CCO)CCO)nc(N3CCCCC3)c2n1`: in data set [1], the inhibition is above 55%. The molecule `c1ccc(-c2ccc(C(c3ccccc3)n3ccnc3)cc2)cc1` (configuration not stated) returned an inhibition in data set [1] above 55%. For `Clc1ccccc1C(c1ccccc1)(c1ccccc1)n1ccnc1` [CLOTRIMAZOLE], the IC50 in [3] was found to be 5.9 µM; in data set [4], 51.6 µM. Further, the inhibition in [2] is above 95%. Consider `Clc1ccc(COC(Cn2ccnc2)c2ccc(Cl)cc2Cl)cc1` (configuration not stated) [ECONAZOLE], for which the IC50 was found to be 7.6 µM in [3] and 11.2 µM in data set [4]. Moreover, the inhibition in [2] is above 95%. Take `CC1=C(/C=C/C(C)=C/C=C/C(C)=C/C(=O)Nc2ccc(O)cc2)C(C)(C)CCC1` [FENRETINIDE]: the concentration for half-maximal inhibition (IC50) in [3] turned out to be 18.7 µM; in [4], 59.9 µM. Further, the Activity entry in the data set on HEK-293T was “Non-toxic”. In addition, the inhibition was 32% in data set [2] and above 55% in [1]. For the molecule `Cc1c(OCC(F)(F)F)ccnc1C[S+]([O-])c1nc2ccccc2[nH]1` (configuration not stated) [LANSOPRAZOLE], the half-maximal inhibitory concentration (IC50) in [3] was found to be 8.2 µM; in data set [4] it was 94 µM. Besides, the Activity result in the data set with HEK-293T is “Non-toxic”. The inhibition in [2] is below 20%. As for `Clc1ccc(COC(Cn2ccnc2)c2ccc(Cl)cc2Cl)c(Cl)c1` (configuration not stated) [MICONAZOLE], the IC50 stood at 6.7 µM in [3] and 17.8 µM in data set [4]. Further, the Activity result in the data set with HEK-293T is listed as “Non-toxic”. The inhibition in data set [2] is above 95%; in [1] it was above 55%.

`COC(=O)C1=C(C)NC(C)=C(C(=O)OC)C1c1ccccc1[N+](=O)[O-]` [NIFEDIPINE]: the IC50 is 1.5 µM in [3] and 46 µM in [4]. Besides, the inhibition in data set [2] is below 20%; in data set [1], above 55%. The Ratio IC50 in the data set filed under Mus musculus came out at 30. As for `COc1ccnc(C[S+]([O-])c2nc3ccc(OC(F)F)cc3[nH]2)c1OC` (configuration not stated) [PANTOPRAZOLE], the IC50 stood at 12.6 µM in [3] and 109 µM in data set [4]. Consider `CCCc1nn(C)c2c(=O)[nH]c(-c3cc(S(=O)(=O)N4CCN(C)CC4)ccc3OCC)nc12` [SILDENAFIL], for which the figures for the concentration for half-maximal inhibition (IC50) in data set [3] and in [4] were 4.5 µM and above 100 µM, respectively. Further, the inhibition entry in [2] was “inactive”. The inhibition in data set [1] was above 55%. Turning to `Clc1ccc(CSC(Cn2ccnc2)c2ccc(Cl)cc2Cl)cc1` (configuration not stated) [SULCONAZOLE], the half-maximal inhibitory concentration (IC50) in data set [3] was found to be 10.1 µM; in [4] it was 29.3 µM. Besides, the inhibition in [2] was above 95%.

For `COc1ccc2[nH]c([S+]([O-])Cc3ncc(C)c(OC)c3C)nc2n1` (configuration not stated) [TENATOPRAZOLE], the IC50 is 1.8 µM in [3] and above 100 µM in [4]. Also, the inhibition result in [2] was “inactive”. Further, in data set [1], the inhibition is above 55%.

For the molecule `CC1=C(/C=C/C(C)=C/C=C/C(C)=C/C(=O)O)C(C)(C)CCC1` [TRETINOIN], the IC50 in [3] came to 28.7 µM; in data set [4] it was 301 µM. In addition, the inhibition result in [2] was “inactive”. Also, the Ratio IC50 in the data set listed under Mus musculus was determined as 10. Besides, the inhibition in data set [1] is above 55%. For the same molecule, the Activity in data set [5] was 100%; in [6], below 5%. Regarding `Cc1c(C)c2c(c(C)c1O)CCC(C)(COc1ccc(CC3SC(=O)NC3=O)cc1)O2` (configuration not stated) [TROGLITAZONE], the 50% inhibitory concentration (IC50) amounted to 4.5 µM in data set [3] and 61 µM in [4]. In addition, the inhibition was below 20% in data set [2] and above 55% in data set [1]. Also, the Ratio IC50 in the data set filed under Mus musculus was determined as 14.

In data set [7], AURANOFIN gave an inhibition above 55%.
